Experimental findings from patent US20240166635A1, “AMINOHETEROARYL KINASE INHIBITORS” (Anrui Biomedical Technology (Guangzhou) Co.,Ltd., priority 2020, published 2024) are described below.

Common to all, as to assay type: biochemical
Experiment [1] has as its target CDK9/CyclinT1 (Homo sapiens (Human), UniProt P50750). The experiment can be described thus: CDK9/CyclinT1 kinase inhibitory activity (Caliper mobility shift). The note with it: read-out: CDK9/Cyclin T1 IC50.
Experiment [2] deals with CDK1/CyclinB (Homo sapiens (Human), UniProt P06493). The experiment is described as follows: CDK1/CyclinB kinase inhibitory activity (Caliper mobility shift). The settings on record: read-out: CDK1/Cyclin B1 IC50.
Sequence of CDK1/CyclinB (P06493 whole entry): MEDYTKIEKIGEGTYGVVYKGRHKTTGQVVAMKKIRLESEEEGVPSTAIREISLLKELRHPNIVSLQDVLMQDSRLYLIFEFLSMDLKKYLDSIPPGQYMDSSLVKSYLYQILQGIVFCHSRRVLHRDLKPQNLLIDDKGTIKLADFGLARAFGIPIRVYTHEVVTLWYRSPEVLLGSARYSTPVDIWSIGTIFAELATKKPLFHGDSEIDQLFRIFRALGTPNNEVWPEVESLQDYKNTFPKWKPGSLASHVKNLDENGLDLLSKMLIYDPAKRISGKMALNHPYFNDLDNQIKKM
Sequence of CDK1/CyclinB (P14635 whole entry partner): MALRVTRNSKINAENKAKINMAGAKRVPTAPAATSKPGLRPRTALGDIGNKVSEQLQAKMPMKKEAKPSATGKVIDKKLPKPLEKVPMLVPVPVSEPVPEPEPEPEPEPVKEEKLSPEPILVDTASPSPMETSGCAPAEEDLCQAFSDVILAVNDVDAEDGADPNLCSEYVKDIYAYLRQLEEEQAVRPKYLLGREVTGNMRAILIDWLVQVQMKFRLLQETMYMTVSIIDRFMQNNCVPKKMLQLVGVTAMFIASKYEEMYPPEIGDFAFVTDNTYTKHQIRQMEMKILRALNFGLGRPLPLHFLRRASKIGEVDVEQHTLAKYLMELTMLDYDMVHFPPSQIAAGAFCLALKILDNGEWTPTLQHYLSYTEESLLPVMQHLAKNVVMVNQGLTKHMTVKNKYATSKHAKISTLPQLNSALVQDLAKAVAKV
Experiment [3] addresses CDK6/CyclinD1 (Homo sapiens (Human), UniProt Q00534). The experiment is described as follows: CDK6/CyclinD1 kinase inhibitory activity (Caliper mobility shift). The settings on record: read-out: CDK6/Cyclin D1 IC50.
For experiment [4], the target named is CDK2/CyclinE1 (Homo sapiens (Human), UniProt P24941). The experiment is described as follows: CDK2/CyclinE1 kinase inhibitory activity (Caliper mobility shift). The settings on record: read-out: CDK2/Cyclin El IC50.
The target in experiment [5] is CDK7/CyclinH/MAT1 (Homo sapiens (Human), UniProt P50613). The experiment is described as follows: CDK7/CyclinH/MAT1 kinase inhibitory activity (Caliper mobility shift).
Sequence of CDK7/CyclinH/MAT1 (P50613 whole entry): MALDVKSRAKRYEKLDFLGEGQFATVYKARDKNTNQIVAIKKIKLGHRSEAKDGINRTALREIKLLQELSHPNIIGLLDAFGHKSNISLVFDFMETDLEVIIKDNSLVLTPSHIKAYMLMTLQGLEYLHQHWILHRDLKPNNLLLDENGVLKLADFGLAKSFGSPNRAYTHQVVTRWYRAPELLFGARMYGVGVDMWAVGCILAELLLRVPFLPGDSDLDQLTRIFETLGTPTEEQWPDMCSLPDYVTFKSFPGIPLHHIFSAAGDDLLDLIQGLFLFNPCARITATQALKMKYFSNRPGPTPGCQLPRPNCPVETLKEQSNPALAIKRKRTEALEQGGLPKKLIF
Sequence of CDK7/CyclinH/MAT1 (P51946 whole entry partner): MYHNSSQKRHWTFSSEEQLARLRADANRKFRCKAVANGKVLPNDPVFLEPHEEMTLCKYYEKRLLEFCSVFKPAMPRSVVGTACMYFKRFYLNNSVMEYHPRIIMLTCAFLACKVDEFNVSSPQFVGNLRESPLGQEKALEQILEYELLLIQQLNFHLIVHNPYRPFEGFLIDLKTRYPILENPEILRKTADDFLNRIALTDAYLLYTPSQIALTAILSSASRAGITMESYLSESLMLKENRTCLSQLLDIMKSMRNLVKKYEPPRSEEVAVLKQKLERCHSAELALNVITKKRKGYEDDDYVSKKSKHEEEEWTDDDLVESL
Sequence of CDK7/CyclinH/MAT1 (P51948 whole entry partner): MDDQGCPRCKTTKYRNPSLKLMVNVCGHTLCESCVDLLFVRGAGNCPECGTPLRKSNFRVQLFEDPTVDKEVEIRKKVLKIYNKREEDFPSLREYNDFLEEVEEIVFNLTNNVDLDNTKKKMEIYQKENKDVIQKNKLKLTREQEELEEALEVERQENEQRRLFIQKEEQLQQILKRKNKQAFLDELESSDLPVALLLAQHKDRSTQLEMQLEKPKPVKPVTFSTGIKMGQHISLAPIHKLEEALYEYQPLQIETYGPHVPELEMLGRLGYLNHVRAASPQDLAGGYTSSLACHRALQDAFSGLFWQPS
Experiment [6] concerns the target CDK4/Cyclin D1 (Homo sapiens (Human), UniProt P11802). The experiment is described as follows: CDK4/CyclinD1 kinase inhibitory activity (Caliper mobility shift).

Sequence of CDK9/CyclinT1 (P50750 whole entry): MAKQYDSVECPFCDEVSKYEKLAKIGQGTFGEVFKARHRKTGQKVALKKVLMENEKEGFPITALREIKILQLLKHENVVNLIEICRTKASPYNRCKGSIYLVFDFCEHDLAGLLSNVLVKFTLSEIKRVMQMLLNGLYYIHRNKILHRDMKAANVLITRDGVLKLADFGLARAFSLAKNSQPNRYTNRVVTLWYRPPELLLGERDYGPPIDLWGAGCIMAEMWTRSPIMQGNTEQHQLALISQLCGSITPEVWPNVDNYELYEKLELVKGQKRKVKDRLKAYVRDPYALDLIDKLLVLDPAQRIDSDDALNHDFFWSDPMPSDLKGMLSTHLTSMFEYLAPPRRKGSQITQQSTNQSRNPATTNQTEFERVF
Sequence of CDK9/CyclinT1 (O60563 whole entry partner): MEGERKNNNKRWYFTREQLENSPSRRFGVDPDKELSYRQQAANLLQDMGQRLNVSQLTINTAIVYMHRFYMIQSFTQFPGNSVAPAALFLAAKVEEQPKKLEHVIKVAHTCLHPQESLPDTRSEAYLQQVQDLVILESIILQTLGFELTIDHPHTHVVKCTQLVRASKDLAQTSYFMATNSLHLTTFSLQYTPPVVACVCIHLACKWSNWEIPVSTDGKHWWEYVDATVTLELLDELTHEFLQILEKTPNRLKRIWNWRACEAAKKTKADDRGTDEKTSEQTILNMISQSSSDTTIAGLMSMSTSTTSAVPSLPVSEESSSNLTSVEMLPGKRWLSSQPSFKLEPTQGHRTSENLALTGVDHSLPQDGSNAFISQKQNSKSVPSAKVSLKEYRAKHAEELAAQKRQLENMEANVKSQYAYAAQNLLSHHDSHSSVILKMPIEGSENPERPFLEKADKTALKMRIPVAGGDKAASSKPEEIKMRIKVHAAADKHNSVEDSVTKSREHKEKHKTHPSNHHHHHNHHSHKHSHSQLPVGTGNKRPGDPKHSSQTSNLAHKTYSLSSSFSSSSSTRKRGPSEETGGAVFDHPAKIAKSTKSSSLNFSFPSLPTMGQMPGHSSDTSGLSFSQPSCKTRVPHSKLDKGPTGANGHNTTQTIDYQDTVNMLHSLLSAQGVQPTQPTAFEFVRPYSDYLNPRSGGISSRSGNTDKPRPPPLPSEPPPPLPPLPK
Sequence of CDK4/Cyclin D1 (P11802 whole entry): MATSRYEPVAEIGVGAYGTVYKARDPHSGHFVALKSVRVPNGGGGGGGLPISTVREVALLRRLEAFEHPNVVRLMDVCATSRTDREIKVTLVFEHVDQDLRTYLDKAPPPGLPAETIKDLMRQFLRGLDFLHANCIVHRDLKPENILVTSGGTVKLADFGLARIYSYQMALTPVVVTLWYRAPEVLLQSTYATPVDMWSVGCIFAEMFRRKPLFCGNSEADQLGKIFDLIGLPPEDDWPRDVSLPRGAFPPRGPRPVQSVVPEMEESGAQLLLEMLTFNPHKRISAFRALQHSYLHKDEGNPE
Sequence of CDK4/Cyclin D1 (P24385 whole entry partner): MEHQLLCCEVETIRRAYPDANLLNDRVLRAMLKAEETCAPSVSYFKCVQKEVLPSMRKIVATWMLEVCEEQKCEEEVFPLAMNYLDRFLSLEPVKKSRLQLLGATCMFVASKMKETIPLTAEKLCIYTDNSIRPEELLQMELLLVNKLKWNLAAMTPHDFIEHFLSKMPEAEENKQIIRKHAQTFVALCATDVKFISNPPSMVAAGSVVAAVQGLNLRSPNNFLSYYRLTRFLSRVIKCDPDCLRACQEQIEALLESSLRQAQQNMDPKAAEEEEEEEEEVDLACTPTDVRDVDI
Sequence of CDK6/CyclinD1 (Q00534 whole entry): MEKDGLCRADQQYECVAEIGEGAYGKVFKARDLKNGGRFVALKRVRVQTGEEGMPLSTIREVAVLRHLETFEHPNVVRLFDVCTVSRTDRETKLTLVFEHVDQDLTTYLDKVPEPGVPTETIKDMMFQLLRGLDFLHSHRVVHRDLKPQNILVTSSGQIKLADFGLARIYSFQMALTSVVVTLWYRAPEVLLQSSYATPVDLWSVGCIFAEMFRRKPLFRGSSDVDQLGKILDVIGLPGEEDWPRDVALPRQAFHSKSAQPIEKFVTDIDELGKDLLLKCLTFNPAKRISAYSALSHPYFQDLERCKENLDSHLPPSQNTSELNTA
Sequence of CDK6/CyclinD1 (P24385 whole entry partner): as the sequence (P24385 whole entry partner) above

For the compound `[2H]C([2H])([2H])NS(=O)(=O)c1ccc(Nc2ncc(C(F)(F)F)c(O[C@H]3CCOC[C@H]3O)n2)c(F)c1` (single isomer, unassigned) [Example 101a, cis-3-fluoro-4-((4-((3-hydroxytetrahydro-2H-pyran-4-yl)oxy)-5-(trifluoromethyl)pyrimidin-2-yl)amino)-N-(methyl-d3)benzenesulfonamide], the IC50 in experiment [1] is at least 1000 nM; in experiment [2], 100 to 1000 nM; in experiment [3] it was at least 1000 nM; in experiment [4], below 10 nM; in experiment [5], at least 1000 nM; in experiment [6] it was at least 1000 nM.

On to `CC(C)CS(=O)(=O)N1CCC(Nc2ncc(C#N)c(OC3CCCC3(C)O)n2)CC1` (single isomer, unassigned) [Example 39a], for which the IC50 in experiment [1] was 100 to 1000 nM; in experiment [2], 10 to 100 nM; in experiment [3] it was below 10 nM; in experiment [4] it was below 10 nM; in experiment [5], 100 to 1000 nM; in experiment [6], 10 to 100 nM.

With `N#Cc1cnc(Nc2ccc(S(N)(=O)=O)cc2)nc1-c1cccc(C2CC2)c1` [Example 96], the IC50 is 100 to 1000 nM in experiment [1]; 100 to 1000 nM in experiment [2]; at least 1000 nM in experiment [3]; 10 to 100 nM in experiment [4]; at least 1000 nM in experiment [5]; 10 to 100 nM in experiment [6].

Regarding `[2H]C([2H])([2H])NS(=O)(=O)c1ccc(Nc2ncc(CC)c(OC3COCC3(C)O)n2)cc1` (single isomer, unassigned) [Example 150a], the IC50 was 100 to 1000 nM in experiment [1]; 10 to 100 nM in experiment [2]; 100 to 1000 nM in experiment [3]; below 10 nM in experiment [4]; 100 to 1000 nM in experiment [5]; 100 to 1000 nM in experiment [6].

Take `CC1(O)COCCC1Oc1nc(NC2CCN(S(C)(=O)=O)CC2)ncc1C#N` (single isomer, unassigned) [Example 45a]: the IC50 in experiment [1] was 100 to 1000 nM; in experiment [2], 10 to 100 nM; in experiment [3], 10 to 100 nM; in experiment [4], below 10 nM; in experiment [5] it was 10 to 100 nM; in experiment [6] it was 10 to 100 nM.

`N#Cc1cnc(Nc2ccc(S(N)(=O)=O)cc2)nc1OC1CCCCCC1O` (single isomer, unassigned) [Example 22a]: the IC50 was 100 to 1000 nM in experiment [1]; 10 to 100 nM in experiment [2]; 10 to 100 nM in experiment [3]; below 10 nM in experiment [4]; at least 1000 nM in experiment [5]; 10 to 100 nM in experiment [6].

Regarding `[2H]C([2H])([2H])NS(=O)(=O)c1ccc(Nc2ncc(C(F)(F)F)c(OC3COCCC3O)n2)cc1` (single isomer, unassigned) [Example 117a], the IC50 in experiment [1] is 100 to 1000 nM; in experiment [2], 10 to 100 nM; in experiment [3], 100 to 1000 nM; in experiment [4], below 10 nM; in experiment [5], 100 to 1000 nM; in experiment [6], 100 to 1000 nM.

For the compound `CS(=O)(=O)N1CCC(Nc2ncc(Br)c(OC3CCCCCC3O)n2)CC1` (single isomer, unassigned) [Example 145b], the IC50 in experiment [1] is 100 to 1000 nM; in experiment [2], 10 to 100 nM; in experiment [3], 10 to 100 nM; in experiment [4], below 10 nM; in experiment [5] it was 10 to 100 nM; in experiment [6], 10 to 100 nM.

As to `Cn1cc(S(=O)(=O)N2CCC(Nc3ncc(Br)c(OC4CCCCC4O)n3)CC2)cn1` (single isomer, unassigned) [Example 144b], the IC50 in experiment [1] was 100 to 1000 nM; in experiment [2] it was 10 to 100 nM; in experiment [3], 10 to 100 nM; in experiment [4] it was below 10 nM; in experiment [5], 100 to 1000 nM; in experiment [6], 10 to 100 nM.

Take `CC1(O)CCCCC1Oc1nc(Nc2ccc(S(N)(=O)=O)cc2)ncc1C#N` (single isomer, unassigned) [Example 24a]: the IC50 in experiment [1], in experiment [2], in experiment [3], in experiment [4], in experiment [5] and in experiment [6] was below 10 nM in each case.

With `N#Cc1cnc(Nc2ccc(S(=O)(=O)NC3CC(F)C3)cc2)nc1OC1CCCCC1O` (single isomer, unassigned) [Example 31a], the IC50 in experiment [1] was 100 to 1000 nM; in experiment [2] it was 10 to 100 nM; in experiment [3] it was 100 to 1000 nM; in experiment [4] it was below 10 nM; in experiment [5], at least 1000 nM; in experiment [6] it was 10 to 100 nM.

`CC(C)NS(=O)(=O)c1ccc(Nc2ncc(C3CC3)c(O[C@@H]3CCC[C@@H]3O)n2)cc1` (single isomer, unassigned) [Example 134a, cis-4-((5-cyclopropyl-4-((2-hydroxycyclopentyl)oxy)pyrimidin-2-yl)amino)-N-isopropylbenzenesulfonamide]: the IC50 was 100 to 1000 nM in experiment [1]; 10 to 100 nM in experiment [2]; 100 to 1000 nM in experiment [3]; below 10 nM in experiment [4]; 100 to 1000 nM in experiment [5]; 100 to 1000 nM in experiment [6].

For `CNS(=O)(=O)N1CCC(Nc2ncc(C#N)c(OCC3(C)CCCC3)n2)CC1` [Example 55], the IC50 is 100 to 1000 nM in experiment [1]; 10 to 100 nM in experiment [2]; 10 to 100 nM in experiment [3]; below 10 nM in experiment [4]; at least 1000 nM in experiment [5]; below 10 nM in experiment [6].

In the case of `O=S(=O)(NC1CCOCC1)c1ccc(Nc2ncc(Cl)c(O[C@@H]3CCC[C@@H]3O)n2)cc1` (single isomer, unassigned) [Example 130a, cis-4-((5-chloro-4-((2-hydroxycyclopentyl)oxy)pyrimidin-2-yl)amino)-N-(tetrahydro-2H-pyran-4-yl)benzenesulfonamide], the IC50 is 100 to 1000 nM in experiment [1]; 10 to 100 nM in experiment [2]; 100 to 1000 nM in experiment [3]; below 10 nM in experiment [4]; 100 to 1000 nM in experiment [5]; 100 to 1000 nM in experiment [6].

`CC1(O)CC(F)(F)CCC1Oc1nc(NC2CCN(S(C)(=O)=O)CC2)ncc1C#N` (single isomer, unassigned) [Example 47a]: the IC50 in experiment [1] was 100 to 1000 nM; in experiment [2], 10 to 100 nM; in experiment [3] it was below 10 nM; in experiment [4], below 10 nM; in experiment [5] it was 10 to 100 nM; in experiment [6], below 10 nM.

`C=Cc1cnc(Nc2ccc(S(N)(=O)=O)cc2)nc1OC1CCCC1O` (single isomer, unassigned) [Example 155a]: the IC50 in experiment [1] was 10 to 100 nM; in experiment [2], 10 to 100 nM; in experiment [3], 10 to 100 nM; in experiment [4], below 10 nM; in experiment [5] it was 100 to 1000 nM; in experiment [6], 100 to 1000 nM.

Take `N#Cc1cnc(Nc2ccc(S(N)(=O)=O)cc2)nc1OC1CCCC1` [Example 10]: the IC50 in experiment [1] is 10 to 100 nM; in experiment [2], 10 to 100 nM; in experiment [3], 10 to 100 nM; in experiment [4], below 10 nM; in experiment [5], 100 to 1000 nM; in experiment [6] it was 10 to 100 nM.

As to `Cn1ccc(S(=O)(=O)N2CCC(Nc3ncc(C#N)c(OCC4(C)CCCC4)n3)CC2)n1` [Example 63], the IC50 in experiment [1] is 100 to 1000 nM; in experiment [2], below 10 nM; in experiment [3], below 10 nM; in experiment [4], below 10 nM; in experiment [5], 100 to 1000 nM; in experiment [6] it was below 10 nM.

Consider `N#Cc1cnc(Nc2ccc(S(N)(=O)=O)cc2)nc1-c1cccc(O)c1` [Example 98], for which the IC50 in experiment [1] is 10 to 100 nM; in experiment [2] it was 10 to 100 nM; in experiment [3] it was 10 to 100 nM; in experiment [4], below 10 nM; in experiment [5] it was at least 1000 nM; in experiment [6], 10 to 100 nM.

In the case of `[2H]C([2H])([2H])NS(=O)(=O)c1ccc(Nc2ncc(Br)c(OC3CCCC3O)n2)cc1` (single isomer, unassigned) [Example 143a], the IC50 in experiment [1] was 100 to 1000 nM; in experiment [2], 10 to 100 nM; in experiment [3], 10 to 100 nM; in experiment [4], below 10 nM; in experiment [5], 100 to 1000 nM; in experiment [6] it was 100 to 1000 nM.

With `CC1CCCC(O)C1Oc1nc(Nc2ccc(S(N)(=O)=O)cc2)ncc1C(F)(F)F` (single isomer, unassigned) [Example 112a], the IC50 in experiment [1] was 100 to 1000 nM; in experiment [2], 10 to 100 nM; in experiment [3], 100 to 1000 nM; in experiment [4], below 10 nM; in experiment [5] it was at least 1000 nM; in experiment [6], 100 to 1000 nM.

`N#Cc1cnc(Nc2ccc(S(=O)(=O)NC3CCC3)cc2)nc1OC1CCC[C@H]1O` (mixture of isomers) [Example 25]: the IC50 in experiment [1] is 100 to 1000 nM; in experiment [2] it was 10 to 100 nM; in experiment [3], 10 to 100 nM; in experiment [4], below 10 nM; in experiment [5], at least 1000 nM; in experiment [6] it was 100 to 1000 nM.

On to `CC1(NS(=O)(=O)c2ccc(Nc3ncc(Br)c(O[C@@H]4CCC[C@@H]4O)n3)cc2)COC1` (single isomer, unassigned) [Example 131a, cis-4-((5-bromo-4-((2-hydroxycyclopentyl)oxy)pyrimidin-2-yl)amino)-N-(3-methyloxetan-3-yl)benzenesulfonamide], for which the IC50 was 100 to 1000 nM in experiment [1]; 10 to 100 nM in experiment [2]; 100 to 1000 nM in experiment [3]; below 10 nM in experiment [4]; 100 to 1000 nM in experiment [5]; 100 to 1000 nM in experiment [6].

Consider `CNS(=O)(=O)c1ccc(Nc2ncc(C#N)c(N3CCCCC3)n2)cc1` [Example 91], for which the IC50 in experiment [1] is 100 to 1000 nM; in experiment [2], 10 to 100 nM; in experiment [3] it was 100 to 1000 nM; in experiment [4], below 10 nM; in experiment [5] it was at least 1000 nM; in experiment [6], 10 to 100 nM.
